Data from patent US7816400B2 (The University of Hong Kong, priority 2007, dated 2010).
Entries after “also recorded” stand apart in the source; their conditions may differ.

Legend:
IKur = molecular target: T1, IKur (Homo sapiens, UniProt P22460); test: IKur in human atrial myocytes, whole-cell patch clamp; format: cell-based; settings: for inhibition of voltage-dependent IKur (tail and step currents), in words: 3, 10 and 30 μM
T1 construct: endogenous in cells; host or cells: human right atrial myocytes, freshly isolated
T1 sequence (P22460 whole entry): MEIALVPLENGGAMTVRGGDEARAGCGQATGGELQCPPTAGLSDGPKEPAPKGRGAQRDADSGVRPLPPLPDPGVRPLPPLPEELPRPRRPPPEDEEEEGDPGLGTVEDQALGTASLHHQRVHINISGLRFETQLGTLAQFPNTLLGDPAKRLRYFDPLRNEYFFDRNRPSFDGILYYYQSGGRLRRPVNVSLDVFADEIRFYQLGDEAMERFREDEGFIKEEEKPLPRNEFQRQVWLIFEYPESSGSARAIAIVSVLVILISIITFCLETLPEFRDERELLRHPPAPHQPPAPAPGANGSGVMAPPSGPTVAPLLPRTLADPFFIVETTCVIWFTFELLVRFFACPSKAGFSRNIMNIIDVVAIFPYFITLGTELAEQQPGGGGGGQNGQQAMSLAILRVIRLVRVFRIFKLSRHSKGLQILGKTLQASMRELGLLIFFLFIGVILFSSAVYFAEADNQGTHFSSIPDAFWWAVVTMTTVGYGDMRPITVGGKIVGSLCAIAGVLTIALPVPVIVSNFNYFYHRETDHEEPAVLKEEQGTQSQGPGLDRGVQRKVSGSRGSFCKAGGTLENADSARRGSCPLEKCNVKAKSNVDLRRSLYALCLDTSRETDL
Description: (§2) Atrial cells were isolated from specimens of human right atrial appendage obtained from patients (56.1±4.7 years old) undergoing coronary artery bypass grafting. […] After excision, the samples were quickly immersed in oxygenated, normally Ca^2+-free cardioplegic solution for transport to the laboratory. […] Briefly, the atrial tissue was minced, and gently agitated by continuous bubbling with 100% O2 in a Ca^2+-free Tyrode solution for 15 min (5 min at a time in fresh solutions), and then incubated for 50 min in a similar solution containing 150-200 U/ml collagenase (CLS II, Worthington Biochemical, Freehold, N.J., USA), 0.2 mg/ml protease (type XXIV, Sigma-Aldrich Chemical, St Louis, Mo., USA.) and 1 mg/ml bovine serum albumin (Sigma-Aldrich). After then, the chunks were re-incubated in a fresh enzyme solution of the same composition but no protease. The quantity and quality of isolated cells were monitored under a microscope. When the cell yield appeared optimal, the chunks were suspended in a high K medium containing (mM) 10 KCl, 120 K-glutamate, 10 KH2PO4, 1.8 MgSO4, 10 taurine, 10 HEPES, 0.5 EGTA, 20 glucose, 10 mannitol, pH was adjusted to 7.3 with KOH and gently blown with a pipette. The isolated myocytes were kept at room temperature in the medium at least 1 h before use.
(§3) The Ca^2+-free cardioplegic solution for specimen transport contained (in mM) 50 KH2PO4, 8 MgSO4, 5 adenosine, 10 HEPES, 140 glucose, 100 mannitol, 10 taurine, pH was adjusted to 7.3 with KOH. Tyrode solution contained (in mM) 140 NaCl, 5.4 KCl, 1 MgCl2, 1 CaCl2, 0.33 NaH2PO4, 10 HEPES, 10 glucose, pH was adjusted to 7.4 with NaOH. The pipette solution contained (in mM) 20 KCl, 110 K-aspartate, 1 MgCl2, 10 HEPES, 5 EGTA, 0.1 GTP, 5 Na2-phosphocreatine, and 5 Mg2-ATP, pH was adjusted to 7.2 with KOH. For Ito and IKur recording, BaCl2 (200 μM) and CdCl2 (200 μM) were added to the superfusion to block IK1 and ICa.L. Atropine (1.0 μM) was used to minimize possible IK.ACh contamination during the current recording. For ICa.L recording, K^+ in pipette and Tyrode solution was replaced by CsCl. INa was recorded under conditions of K^+-free and a symmetrical Na^+ (5 mM) in pipette and superfusion solutions as described previously (Li at al., 2002a).
A small aliquot of the solution containing the isolated cells was placed in an open perfusion chamber (1-ml) mounted on the stage of an inverted microscope. […]
The whole-cell patch-clamp technique was used for electrophysiological recording. […] Membrane currents were recorded in voltage-clamp mode using an EPC-9 amplifier and Pulse software (HEKA, Lambrecht, Germany). […] The cell membrane capacitance (pF) was directly measured using the lock-in module of the Pulse software, and used for normalizing the current in individual cells.

Ito = molecular target: T2, Ito (Homo sapiens, UniProt Q9UK17); test: Ito in human atrial myocytes, whole-cell patch clamp; format: cell-based; settings: for voltage-dependence of steady-state inactivation and activation of Ito, in words: 10 μM
T2 sequence (Q9UK17 1-655): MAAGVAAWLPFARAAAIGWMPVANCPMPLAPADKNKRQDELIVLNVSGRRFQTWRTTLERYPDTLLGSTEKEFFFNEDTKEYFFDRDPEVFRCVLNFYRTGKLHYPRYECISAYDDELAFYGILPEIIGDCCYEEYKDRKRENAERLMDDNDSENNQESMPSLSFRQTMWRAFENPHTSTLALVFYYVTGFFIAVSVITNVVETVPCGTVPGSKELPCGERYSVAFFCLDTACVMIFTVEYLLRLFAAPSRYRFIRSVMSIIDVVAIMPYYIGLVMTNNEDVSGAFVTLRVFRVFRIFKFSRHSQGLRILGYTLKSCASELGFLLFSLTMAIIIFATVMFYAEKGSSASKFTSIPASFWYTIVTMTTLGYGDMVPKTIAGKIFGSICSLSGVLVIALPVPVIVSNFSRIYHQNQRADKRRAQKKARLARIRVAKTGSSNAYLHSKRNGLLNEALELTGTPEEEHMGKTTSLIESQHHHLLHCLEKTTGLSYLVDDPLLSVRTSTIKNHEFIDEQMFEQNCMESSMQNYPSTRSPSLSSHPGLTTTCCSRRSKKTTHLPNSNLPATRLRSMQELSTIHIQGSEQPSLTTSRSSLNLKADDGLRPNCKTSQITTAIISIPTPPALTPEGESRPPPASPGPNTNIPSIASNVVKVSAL
T2 sequence (Q9NS61 1-270 partner): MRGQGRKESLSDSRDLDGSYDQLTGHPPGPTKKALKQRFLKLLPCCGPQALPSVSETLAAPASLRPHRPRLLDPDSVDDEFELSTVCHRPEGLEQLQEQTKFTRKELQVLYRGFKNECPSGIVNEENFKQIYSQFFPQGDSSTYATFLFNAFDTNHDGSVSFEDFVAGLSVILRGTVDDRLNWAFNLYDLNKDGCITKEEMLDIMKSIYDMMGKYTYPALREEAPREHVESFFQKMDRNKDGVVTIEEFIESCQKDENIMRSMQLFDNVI
Description: as §2, §3
(§4) A small aliquot of the solution containing the isolated cells was placed in an open perfusion chamber (1-ml) mounted on the stage of an inverted microscope. Myocytes were allowed to adhere to the bottom of the chamber for 5-10 min and were the superfused at 2-3 ml/min with Tyrode solution. Only quiescent rod-shaped cells with clear cross-striations were used. The studies were conducted at room temperature (21-22° C.) for current recording or 36° C. for action potential recording.

Kunmin mice = test: Acute toxicity in mice; format: in vivo; settings: oral, two-week observation
Description: The animals were observed closely with a two-week duration for death number and activity.

[1] = molecular target: IKs channels (hKCNQ1/hKCNE1) (Homo sapiens, UniProt P51787); test: IKs in HEK 293 cells stably expressing hKCNQ1/hKCNE1; format: cell-based; settings: for inhibition of IKs amplitude, in words: 30 μM
Description: The established HEK 293 cell lines stably expressing the hERG channel gene, Kv1.5 (Tang et al., 2007), or recombinant human cardiac KCNQ1/KCNE1 channel current (IKs) (Dong et al., 2006) was maintained separately in Dulbecco's modified eagle medium (Invitrogen) supplemented with 10% fetal bovine serum and containing 400 μg/ml G418 (for hERG or Kv1.5 channels) or 100 μg/ml hygromycin (for IKs).
The whole-cell patch-clamp technique was used for electrophysiological recording. Borosilicate glass electrodes (1.2-mm OD) were pulled with a Brown-Flamming puller (model P-97, Sutter Instrument Co, Novato, Calif., USA) and had tip resistances of 2-3 MΩ when filled with pipette solution. Membrane currents were recorded in voltage-clamp mode using an EPC-9 amplifier and Pulse software (HEKA, Lambrecht, Germany). A 3-M KCl-agar salt bridge was used as reference electrode. The tip potentials were compensated before the pipette touched the cell. After a giga-ohm seal was obtained, the cell membrane was ruptured by gentle suction to establish the whole-cell configuration. The cell membrane capacitance (pF) was directly measured using the lock-in module of the Pulse software, and used for normalizing the current in individual cells. The series resistance (Rs) was 3-5 MΩ and was compensated by 50-70% to minimize voltage errors. Perforated patch configuration was used for recording action potential in human atrial cells and IKs in HEK 293 cells as described previously (Li et al., 2002b; Dong et al., 2006). Current signals were low-pass filtered at 5 kHz and stored on the hard disk of an IBM compatible computer.

INa = INa in guinea pig ventricular myocytes; format: cell-based; settings: 30 and 100 μM
Description: (§1) Guinea pigs of either gender (250-300 g) were sacrificed by cervical dislocation after anesthetization with pentobarbital (40 mg kg, i.p.). The procedure related to the use of animals in this invention was approved by the Animal Care and Use Committee for Teaching and Research of University of Hong Kong in accordance with the Guide for the Care and Use of Laboratory Animals (Institute of Laboratory Animal Resources, Commission on Life Sciences, National Research Council, 1996). Left atrial and ventricular myocytes from guinea pig hearts were enzymatically dissociated by the procedure described previously (Li et al., 2002a) and the isolated myocytes were kept in the K^+ storage medium.
The Ca^2+-free cardioplegic solution for specimen transport contained (in mM) 50 KH2PO4, 8 MgSO4, 5 adenosine, 10 HEPES, 140 glucose, 100 mannitol, 10 taurine, pH was adjusted to 7.3 with KOH. Tyrode solution contained (in mM) 140 NaCl, 5.4 KCl, 1 MgCl2, 1 CaCl2, 0.33 NaH2PO4, 10 HEPES, 10 glucose, pH was adjusted to 7.4 with NaOH. […] INa was recorded under conditions of K^+-free and a symmetrical Na^+ (5 mM) in pipette and superfusion solutions as described previously (Li at al., 2002a).
The whole-cell patch-clamp technique was used for electrophysiological recording. […] Membrane currents were recorded in voltage-clamp mode using an EPC-9 amplifier and Pulse software (HEKA, Lambrecht, Germany). […]

human atrial myocytes = test: Action potential in human atrial myocytes, perforated patch, current clamp; format: cell-based
Description: Atrial cells were isolated from specimens of human right atrial appendage obtained from patients (56.1±4.7 years old) undergoing coronary artery bypass grafting. […] All patients were free from supraventricular tachyarrythmias, and the atria were grossly normal at the time of surgery. After excision, the samples were quickly immersed in oxygenated, normally Ca^2+-free cardioplegic solution for transport to the laboratory. Atrial myocytes were enzymatically dissociated as described previously (Tian et al., 2006; Gao et al., 2004). Briefly, the atrial tissue was minced, and gently agitated by continuous bubbling with 100% O2 in a Ca^2+-free Tyrode solution for 15 min (5 min at a time in fresh solutions), and then incubated for 50 min in a similar solution containing 150-200 U/ml collagenase (CLS II, Worthington Biochemical, Freehold, N.J., USA), 0.2 mg/ml protease (type XXIV, Sigma-Aldrich Chemical, St Louis, Mo., USA.) and 1 mg/ml bovine serum albumin (Sigma-Aldrich). After then, the chunks were re-incubated in a fresh enzyme solution of the same composition but no protease. The quantity and quality of isolated cells were monitored under a microscope. When the cell yield appeared optimal, the chunks were suspended in a high K medium containing (mM) 10 KCl, 120 K-glutamate, 10 KH2PO4, 1.8 MgSO4, 10 taurine, 10 HEPES, 0.5 EGTA, 20 glucose, 10 mannitol, pH was adjusted to 7.3 with KOH and gently blown with a pipette. The isolated myocytes were kept at room temperature in the medium at least 1 h before use.
as §4
The whole-cell patch-clamp technique was used for electrophysiological recording. Borosilicate glass electrodes (1.2-mm OD) were pulled with a Brown-Flamming puller (model P-97, Sutter Instrument Co, Novato, Calif., USA) and had tip resistances of 2-3 MΩ when filled with pipette solution. […] A 3-M KCl-agar salt bridge was used as reference electrode. The tip potentials were compensated before the pipette touched the cell. After a giga-ohm seal was obtained, the cell membrane was ruptured by gentle suction to establish the whole-cell configuration. […] The series resistance (Rs) was 3-5 MΩ and was compensated by 50-70% to minimize voltage errors. Perforated patch configuration was used for recording action potential in human atrial cells and IKs in HEK 293 cells as described previously (Li et al., 2002b; Dong et al., 2006). Current signals were low-pass filtered at 5 kHz and stored on the hard disk of an IBM compatible computer.

IK1 = IK1 in guinea pig ventricular myocytes; format: cell-based; settings: 30 and 100 μM
Description: as §1
The whole-cell patch-clamp technique was used for electrophysiological recording. Borosilicate glass electrodes (1.2-mm OD) were pulled with a Brown-Flamming puller (model P-97, Sutter Instrument Co, Novato, Calif., USA) and had tip resistances of 2-3 MΩ when filled with pipette solution. Membrane currents were recorded in voltage-clamp mode using an EPC-9 amplifier and Pulse software (HEKA, Lambrecht, Germany). A 3-M KCl-agar salt bridge was used as reference electrode. The tip potentials were compensated before the pipette touched the cell. […] The cell membrane capacitance (pF) was directly measured using the lock-in module of the Pulse software, and used for normalizing the current in individual cells. […]

[2] = extract fraction / isolated compound, concentration not given

## COc1ccc(-c2cc(=O)c3c(O)cc(O)cc3o2)cc1 [Acacetin, 5,7-dihydroxy-4′-methoxyflavone]
IKur
  inhibition of voltage-dependent IKur (tail and step currents), in words: substantially inhibited
IKur; listed as acacetin
  inhibition of voltage-dependent IKur (tail and step currents), in words: suppressed
IKur; [2]
  effect on IKur in human atrial myocytes, in words: blocking effect
IKur; human atrial myocytes, +40 mV, 0.3 to 100 μM, Hill equation fit, read-out: IC50 for inhibiting IKur
  IC50: 3.2 µM
Ito
  voltage-dependence of steady-state inactivation and activation of Ito, in words: did not affect
Ito; listed as acacetin
  voltage-dependence of steady-state inactivation and activation of Ito, in words: not affected; also recorded: without affecting
Ito; 3 and 10 μM, with 10 μM verapamil
  inhibition of voltage-dependent Ito, in words: substantially inhibited; also recorded: reduced
Ito; [2]
  effect on Ito in human atrial myocytes, in words: blocking effect
Ito; human atrial myocytes, +40 mV, IKur blocked with 10 μM verapamil, read-out: IC50 for inhibiting Ito
  IC50: 9.2 µM
Kunmin mice; 0.3 g/kg three times
  abnormal activity compared to vehicle-control animals: no abnormal activity
Kunmin mice; 900 mg/kg (0.3 g/kg three times at intervals of 1.5 h), 900 mg/kg
  animal death: no animal death
[1]
  inhibition of IKs amplitude, in words: significantly inhibited
[1]; listed as acacetin
  inhibition of IKs amplitude, in words: inhibited
[1]; HEK 293 cells, IKs.step, +40 mV, read-out: IC50 for inhibiting IKs
  IC50: 81.4 µM
INa
  effect on INa, in words: no effect; also recorded: no inhibition
INa; listed as acacetin
  effect on INa, in words: no effects
Human atrial myocytes; 10 μM, 0.5 Hz vs 2 Hz
  rate dependence of APD prolongation, in words: slight rate-dependent increase; also recorded: slight rate-dependent prolongation
Human atrial myocytes; 5 and 10 μM, 0.5, 1.0, 2.0 Hz, 36° C.
  action potential duration (APD50, APD75, APD90), in words: significantly prolonged
Human atrial myocytes; 5 or 10 μM, 2 Hz
  resting membrane potential and amplitude of action potential, in words: without affecting
IK1
  effect on IK1, in words: no effect; also recorded: no inhibition
IK1; listed as acacetin
  effect on IK1, in words: no effects
